Results as given in US10647680B2, “Urea compound, preparation method therefor and medical use thereof” (Ancureall Pharmaceutical (Shanghai) Co., Ltd., priority 2016, dated 2020).

How the values were obtained:
RS4; 11 (FLT3 wild type) = assay: In vitro growth inhibition (GI50), RS4; 11; type: cell-based, human; settings: Homo sapiens, RS4-11; Cell lines of leukemia; read-out: GI 50 RS4: 11 FLT3 (WT)
Excerpt: (§1) 1. Cell Lines and Cell Cultures
(§2) Tumor cell line is an effective cell model for studying the inhibition of tumor cell growth or proliferation in vitro. In the present invention, a representative tumor cell line was selected to determine the cell growth inhibition activity of the present compound. All cell lines used were from ATCC, DSMZ, and the Cell Bank of the Chinese Academy of Sciences. Cell culture conditions and methods were in accordance with the requirements of each cell line. Cells were subcultured in vitro for no more than 3 passages each time, and as required, single-clone purification and identification of cell lines could be carried out.
(§3) The cell culture media used were RPMI1640 (Gibco), MEM (Gibco), McCOY'S5A (Gibco), and IMDM (Gibco). The complete medium was prepared by supplement with 5˜20% fetal calf serum (Gibco), 1% double-antibiotics (10000 units/mL penicillin and 10000 units/mL), 2 mM glutamine or 1 mM sodium pyruvate, respectively.
(§4) The human acute […] monomonocyte leukemia cell line MV4-11 (FLT3 ITD+/+ mutant type, ATCC) was cultured in a complete medium comprising 1×IMDM and 10% FBS. Human acute myeloid leukemia cell line MOLM-13 (FLT3 ITD+/− mutant type, DSMZ), human acute lymphoblastic leukemia cell line RS4; 11 (FLT3 wild type, ATCC), human chronic granulocytic leukemia cell line K562 (FLT3 negative expression, positive expression of BCR-ABL fusion protein, ATCC), human promyelocytic leukemia cell line HL-60 (FLT3 wild type, ATCC), human B lymphoblastic leukemia cell line RAMOS (positive expression of Brutons tyrosine protein kinase, ATCC), human acute myeloid leukemia cell line Kasumi-1 (c-Kit N822K mutant type, ATCC), human acute monocytic leukemia cell line U937 (FLT3 wild-type, ATCC), human acute myeloid leukemia cell line OCI-AML3 (NPMc+ mutant type, ATCC), human acute myeloid leukemia cell line KG-1 (expressing FGFR1OP2-FGFR1 fusion protein, ATCC) were cultured in a complete medium comprising 1×RPMI1640 and 10% FBS, respectively.
(§5) The suspension cells were collected by centrifugation. The supernatant was discarded and the cell pellet was resuspended and counted. Different cell concentrations (5˜10×10^4 cells/mL) were prepared according to the growth cycle of each cell line and then seeded on a 96-well plate (Corning), 100 μL/well. The cells were incubated overnight at 37° C., 5% CO2. The compounds were added to the cells on the second day with 2 wells in parallel. The final concentration of organic solvent shall not exceed 1%. The cells were continually incubated for 3 to 5 days, and then subjected to MTT assay.
(§6) The compound was stored in a concentration of 10 mM at −20° C. and diluted to 2- or 10-fold series prior to use.
(§7) Dojindo CCK8 reagent kit was used as MTT assay. […] FC meter was used as microplate reader.
(§8) For adherent cells, culture medium was removed and immediately replaced with the fresh prepared medium which contains 10% CCK8 reagent (100 μL/well). For the suspension cells, CCK8 was directly added to 10% of the final concentration. The cells were continually incubated for 1˜4 h. […] The experiment was independently repeated 1˜3 times, and subject to biological statistical analysis. 4. Experimental Results
(§9) The initial concentration of the compound was 5,000 nM, then it was serially diluted by 2-fold or 10-fold to 0.01 nM. The GI50 value of each test compound was calculated according to the GI50 assay and calculation method. The experiments were repeated 1 to 3 times, and data were subjected to biological statistical analysis.

U937 (FLT3 wild-type) = assay: In vitro growth inhibition (GI50), U937; type: cell-based; settings: Homo sapiens, U-937; Cell lines of leukemia; read-out: GI 50 U937 FLT 3(WT)
Excerpt: as §1, §2, §3, §4, §5, §6, §7, §8, §9

HL-60 (FLT3 wild type) = assay: In vitro growth inhibition (GI50), HL-60; type: cell-based; settings: Homo sapiens, Cell lines of leukemia, read-out: GI 50 HL60 FLT3 (WT)
Excerpt: as §1, §2, §3, §4
as §5, with “Adherent cells were digested with 0.25% pancreatin-EDTA (Gibco). The suspension” for “The suspension”
(§10) The compound of the present invention and the control compound were dissolved in DMSO (Sigma) respectively, with the purity of more than 98%. The compound was stored in a concentration of 10 mM at −20° C. and diluted to 2- or 10-fold series prior to use.
(§11) Dojindo CCK8 reagent kit was used as MTT assay. THERMO […] FC meter was used as microplate reader.
(§12) For adherent cells, culture medium was removed and immediately replaced with the fresh prepared medium which contains 10% CCK8 reagent (100 μL/well). For the suspension cells, CCK8 was directly added to 10% of the final concentration. The cells were continually incubated for 1˜4 h. When a dark yellow color could be observed in the solvent control wells, the absorbance value at OD450 nm was measured and the cell growth rate was calculated according to the following formula: Cell Growth Rate (%)=100*(T−T0)/(C−T0) T=optical density of drug treatment cell well—optical density of blank control well; T0=optical density of cell well before drug treatment—optical density of blank control well; C=optical density of cell well of solvent control group—optical density of blank control well. The concentration value of 50% inhibition of cell growth (GI50) was calculated according to the drug concentration and cell growth rate curve. […]

[1] = test system: K562 (FLT3 negative expression, positive expression of BCR-ABL fusion protein); assay: In vitro growth inhibition (GI50), K562; type: cell-based; settings: Homo sapiens, Cell lines of leukemia, read-out: GI 50 K562 BCR-ABL
Excerpt: as §1, §2, §3, §4, §5, §6, §7, §8, §9

[2] = test system: RAMOS (positive expression of Brutons tyrosine protein kinase); assay: In vitro growth inhibition (GI50), RAMOS; type: cell-based; settings: Homo sapiens, Cell lines of leukemia, read-out: GI 50 Ramos BTK
Excerpt: as §1, §2, §3, §4, §5, §6, §7, §8, §9

[3] = test system: Kasumi-1 (c-Kit N822K mutant type); assay: In vitro growth inhibition (GI50), Kasumi-1; type: cell-based; settings: Homo sapiens, Cell lines of leukemia, read-out: GI 50 Kasumi-1 Kit (N822K)
Excerpt: as §1, §2, §3, §4
as §5, with “Adherent cells were digested with 0.25% pancreatin-EDTA (Gibco). The suspension” for “The suspension”
as §10, §11, §12

[4] = test system: MV4-11 (FLT3 ITD+/+ mutant type); assay: In vitro growth inhibition (GI50), MV4-11; type: cell-based, human; settings: Homo sapiens, MV4-11; Cell lines of leukemia; read-out: GI 50 MV4-11 FLT3 (ITD +/+)
Excerpt: as §1, §2, §3, §4, §5, §6, §7, §8, §9

[5] = test system: OCI-AML3 (NPMc+ mutant type); assay: In vitro growth inhibition (GI50), OCI-AML3; type: cell-based; settings: Homo sapiens, OCI-AML-3; Cell lines of leukemia; read-out: GI 50 OCI- AML3 NPMc+
Excerpt: as §1, §2, §3, §4, §5, §6, §7, §8, §9

[6] = test system: MOLM-13 (FLT3 ITD+/− mutant type); assay: In vitro growth inhibition (GI50), MOLM-13; type: cell-based, human; settings: Homo sapiens, MOLM-13; Cell lines of leukemia; read-out: GI 50 MOLM-13 FLT3 (ITD+/−)
Excerpt: as §1, §2, §3, §4, §5, §6, §7, §8, §9

[7] = test system: KG-1 (expressing FGFR1OP2-FGFR1 fusion protein); assay: In vitro growth inhibition (GI50), KG-1; type: cell-based; settings: Homo sapiens; Cell lines of leukemia; read-out: GI 50 KG-1 FGFR1OP 2-FGFR1
Excerpt: as §1, §2, §3, §4, §5, §6, §7, §8, §9

Measured: GI50

CC(C)Oc1ccc2c(c1)ncn2-c1ccc(NC(=O)Nc2cc(C(C)(C)C)n[nH]2)cc1 [Compound 74, 1-(5-tert-butyl-2H-pyrazol-3-yl)-3-[4-(5-isopropoxy-benzimidazol-1-yl)-phenyl]-urea]
0.1 to 1 nM: [4] | [6]
> 1000 nM: all other assays above

CC(C)(C)c1cc(NC(=O)Nc2ccc(-n3cnc4cc(OC(F)(F)F)ccc43)cc2)no1 [Compound 21, 1-(5-tert-butyl-isoxazol-3-yl)-3-[4-(5-trifluoromethoxy-benzimidazol-1-yl)-phenyl]-urea]
0.1 to 1 nM: [4] | [6]
> 1000 nM: all other assays above

Cc1cc(NC(=O)Nc2ccc(-n3cnc4ccccc43)cc2)n[nH]1 [Compound 64, 1-(4-benzimidazol-1-yl-phenyl)-3-(5-methyl-1H-pyrazol-3-yl)-urea]
100 to 1000 nM: [4] | [6] | [7]
> 1000 nM: all other assays above

CC(C)(C)c1cc(NC(=O)Nc2ccc(-n3ccc4cccnc43)cc2)no1 [Compound 49, 1-(5-tert-butyl-isoxazol-3-yl)-3-(4-pyrrolo[2,3-b]pyridin-1-yl-phenyl)-urea]
100 to 1000 nM: [4] | [6]
> 1000 nM: all other assays above

Cc1nc2ccccc2n1-c1ccc(NC(=O)Nc2cc(C(C)(C)C)on2)cc1 [Compound 35, 1-(5-tert-butyl-isoxazol-3-yl)-3-[4-(2-methyl-benzimidazol-1-yl)-phenyl]-urea]
100 to 1000 nM: RS4; 11 (FLT3 wild type) | [1] | [4] | [6]
> 1000 nM: all other assays above

CC(C)(C)c1cc(NC(=O)Nc2ccc(-n3cnc4cc(OCCN5CCCCC5)ccc43)cc2)no1 [Compound 17, 1-(5-tert-butyl-isoxazol-3-yl)-3-{4-[5-(2-piperidin-1-yl-ethoxyl)-benzimidazol-1-yl]-phenyl}-urea]
0.1 to 1 nM: [4] | [6]
> 1000 nM: [5]
100 to 1000 nM: all other assays above

CC(C)(C)c1cc(NC(=O)Nc2ccc(-n3cnc4ccccc43)nc2)no1 [Compound 42, 1-(6-benzimidazol-1-yl-pyridin-3-yl)-3-(5-tert-butyl-isoxazol-3-yl)-urea]
1 to 10 nM: [4] | [6]
> 1000 nM: all other assays above

COc1ncnc2ncn(-c3ccc(NC(=O)Nc4cc(C(C)(C)C)on4)cc3)c12 [Compound 57, 1-(5-tert-butyl-isoxazol-3-yl)-3-[4-(6-methoxyl-purin-7-yl)-phenyl]-urea]
10 to 100 nM: [4] | [6]
> 1000 nM: all other assays above

CC(C)(C)c1cc(NC(=O)Nc2ccc(-n3cnc4c(F)cccc43)cc2)no1 [Compound 34, 1-(5-tert-butyl-isoxazol-3-yl)-3-[4-(4-fluoro-benzimidazol-1-yl)-phenyl]-urea]
0.1 to 1 nM: [4] | [6]
> 1000 nM: all other assays above

CC(C)Oc1ccc2c(c1)ncn2-c1ccc(NC(=O)Nc2cc(C(C)(C)C)on2)cc1 [Compound 8, 1-(5-tert-butyl-isoxazol-3-yl)-3-[4-(5-isopropoxy-benzimidazol-1-yl)-phenyl]-urea]
0.1 to 1 nM: [4] | [6]
> 1000 nM: all other assays above

O=C(Nc1ccc(-n2cnc3ccccc32)cc1)Nc1ccon1 [Compound 1, 1-(4-benzimidazol-1-yl-phenyl)-3-isoxazol-3-yl-urea]
> 1000 nM: all assays above
